Experimental data: the supplement of paper PMC11451515

Columns and labels:
Settings in all cases: 48 h
NOMO1 [1] = assay: cell viability relative to DMSO control; higher = less cytotoxic
In short: (§1)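 Viability is expressed as a percentage of DMSO wells within each plate, and cell-free wells serve as background. Seeding densities in the 1536-well plates (5 μl) were 500 cells/well for NOMO1 or SEM leukemia cells and 1000 cells/well for P12-Ichikawa. Each line was adapted for at least four passages in each medium. Library compounds in DMSO were pin-dosed at 47 μM to 0.79 nM (11 points, threefold), and CellTiter-Glo One luminescence was read after 48 h at 37°C.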

P12-Ichikawa [2] = assay: as above
In short: as §1

SEM cells [3] = assay: as above
In short: as §1

NOMO1 [4] = assay: AUC of viability dose-response curve (% viability x log10 dose units); higher = less sensitive
In short: (§2)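 Medium-adapted leukemia cells in 1536-well plates, at 500 or 1000 cells/well, were incubated for 48 h at 37°C with library compounds in DMSO at 11 threefold doses from 47 μM to 0.79 nM. CellTiter-Glo One luminescence normalised per plate to DMSO and cell-free wells was fitted with a four-parameter log-logistic model over log10 doses. Area under the curve was integrated from this fit by trapezoidal rule, with curves beyond full viability scaled and failed quality-control curves removed.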

P12-Ichikawa [5] = assay: as above
In short: as §2

SEM cells [6] = assay: as above
In short: as §2

C[S+](=O)([O-])Oc1ccc2c(NC(N)=O)c(C(=O)c3ccc(Cl)cc3Cl)oc2c1
cell viability [%]
Settings	NOMO1 [1]	P12-Ichikawa [2]	SEM cells [3]
HPLM + 10% dialyzed FBS, 0.000781 µM	115	113	98.3
HPLM + 10% dialyzed FBS, 0.00234 µM	103	120	103
HPLM + 10% dialyzed FBS, 0.00702 µM	114	122	107
HPLM + 10% dialyzed FBS, 0.0211 µM	113	116	109
HPLM + 10% dialyzed FBS, 0.0632 µM	140	120	109
HPLM + 10% dialyzed FBS, 0.19 µM	139	113	104
HPLM + 10% dialyzed FBS, 0.569 µM	127	122	110
HPLM + 10% dialyzed FBS, 1.71 µM	128	119	117
HPLM + 10% dialyzed FBS, 5.12 µM	105	108	129
HPLM + 10% dialyzed FBS, 15.4 µM	100	99.9	120
HPLM + 10% dialyzed FBS, 46.1 µM	42.7	66.5	120
RPMI 5 mM glucose + 10% FBS, 0.000781 µM	105	112	93.7
RPMI 5 mM glucose + 10% FBS, 0.00234 µM	111	109	95.9
RPMI 5 mM glucose + 10% FBS, 0.00702 µM	104	121	106
RPMI 5 mM glucose + 10% FBS, 0.0211 µM	115	117	109
RPMI 5 mM glucose + 10% FBS, 0.0632 µM	120	130	117
RPMI 5 mM glucose + 10% FBS, 0.19 µM	119	116	105
RPMI 5 mM glucose + 10% FBS, 0.569 µM	125	123	106
RPMI 5 mM glucose + 10% FBS, 1.71 µM	117	125	114
RPMI 5 mM glucose + 10% FBS, 5.12 µM	115	129	103
RPMI 5 mM glucose + 10% FBS, 15.4 µM	106	109	122
RPMI 5 mM glucose + 10% FBS, 46.1 µM	50.3	73.3	112
RPMI 5 mM glucose + 10% dialyzed FBS, 0.000781 µM	127	116	82.9
RPMI 5 mM glucose + 10% dialyzed FBS, 0.00234 µM	111	118	91.6
RPMI 5 mM glucose + 10% dialyzed FBS, 0.00702 µM	122	112	102
RPMI 5 mM glucose + 10% dialyzed FBS, 0.0211 µM	126	110	94
RPMI 5 mM glucose + 10% dialyzed FBS, 0.0632 µM	119	117	97
RPMI 5 mM glucose + 10% dialyzed FBS, 0.19 µM	116	122	103
RPMI 5 mM glucose + 10% dialyzed FBS, 0.569 µM	115	122	105
RPMI 5 mM glucose + 10% dialyzed FBS, 1.71 µM	128	126	92.7
RPMI 5 mM glucose + 10% dialyzed FBS, 5.12 µM	135	118	98.2
RPMI 5 mM glucose + 10% dialyzed FBS, 15.4 µM	105	105	92.5
RPMI 5 mM glucose + 10% dialyzed FBS, 46.1 µM	76.8	91.5	105

AUC of viability dose-response curve
Settings	NOMO1 [4]	P12-Ichikawa [5]	SEM cells [6]
HPLM + 10% dialyzed FBS	449	455	433
RPMI 5 mM glucose + 10% FBS	460	463	442
RPMI 5 mM glucose + 10% dialyzed FBS	462	466	464

Nc1nc(F)nc2c1ncn2[C@@H]1O[C@H](COP(=O)(O)O)[C@@H](O)[C@@H]1O
cell viability [%]
Settings	NOMO1 [1]	P12-Ichikawa [2]	SEM cells [3]
HPLM + 10% dialyzed FBS, 0.000781 µM	121	119	107
HPLM + 10% dialyzed FBS, 0.00234 µM	123	120	123
HPLM + 10% dialyzed FBS, 0.00702 µM	135	121	117
HPLM + 10% dialyzed FBS, 0.0211 µM	134	121	113
HPLM + 10% dialyzed FBS, 0.0632 µM	123	130	128
HPLM + 10% dialyzed FBS, 0.19 µM	125	124	117
HPLM + 10% dialyzed FBS, 0.569 µM	129	120	123
HPLM + 10% dialyzed FBS, 1.71 µM	126	133	56.3
HPLM + 10% dialyzed FBS, 5.12 µM	109	128	35.7
HPLM + 10% dialyzed FBS, 15.4 µM	47.3	84.2	16.6
HPLM + 10% dialyzed FBS, 46.1 µM	21	52.2	8.32
RPMI 5 mM glucose + 10% FBS, 0.000781 µM	112	122	107
RPMI 5 mM glucose + 10% FBS, 0.00234 µM	112	121	130
RPMI 5 mM glucose + 10% FBS, 0.00702 µM	130	132	116
RPMI 5 mM glucose + 10% FBS, 0.0211 µM	123	129	92.1
RPMI 5 mM glucose + 10% FBS, 0.0632 µM	125	122	114
RPMI 5 mM glucose + 10% FBS, 0.19 µM	115	142	123
RPMI 5 mM glucose + 10% FBS, 0.569 µM	133	126	128
RPMI 5 mM glucose + 10% FBS, 1.71 µM	118	141	73.1
RPMI 5 mM glucose + 10% FBS, 5.12 µM	117	137	93.7
RPMI 5 mM glucose + 10% FBS, 15.4 µM	109	110	19.7
RPMI 5 mM glucose + 10% FBS, 46.1 µM	38	74.8	11.1
RPMI 5 mM glucose + 10% dialyzed FBS, 0.000781 µM	–	127	103
RPMI 5 mM glucose + 10% dialyzed FBS, 0.00234 µM	–	123	126
RPMI 5 mM glucose + 10% dialyzed FBS, 0.00702 µM	–	123	110
RPMI 5 mM glucose + 10% dialyzed FBS, 0.0211 µM	–	123	98.2
RPMI 5 mM glucose + 10% dialyzed FBS, 0.0632 µM	–	130	134
RPMI 5 mM glucose + 10% dialyzed FBS, 0.19 µM	–	138	114
RPMI 5 mM glucose + 10% dialyzed FBS, 0.569 µM	–	124	105
RPMI 5 mM glucose + 10% dialyzed FBS, 1.71 µM	–	126	52.9
RPMI 5 mM glucose + 10% dialyzed FBS, 5.12 µM	–	129	46.3
RPMI 5 mM glucose + 10% dialyzed FBS, 15.4 µM	–	99.5	18
RPMI 5 mM glucose + 10% dialyzed FBS, 46.1 µM	–	62.1	9.23

AUC of viability dose-response curve
Settings	NOMO1 [4]	P12-Ichikawa [5]	SEM cells [6]
HPLM + 10% dialyzed FBS	420	448	353
RPMI 5 mM glucose + 10% FBS	456	460	398
RPMI 5 mM glucose + 10% dialyzed FBS	448	454	352

N#C/C(=C(/N)Sc1ccc(N)cc1)c1ccccc1C(F)(F)F
cell viability [%], HPLM + 10% dialyzed FBS
Settings	P12-Ichikawa [2]	SEM cells [3]
0.000781 µM	123	91.1
0.00234 µM	121	141
0.00702 µM	125	124
0.0211 µM	125	129
0.0632 µM	133	129
0.19 µM	118	124
0.569 µM	120	126
1.71 µM	103	110
5.12 µM	94.4	85.4
15.4 µM	94.1	82.3
46.1 µM	83.9	64.6

AUC of viability dose-response curve
Settings	NOMO1 [4]	P12-Ichikawa [5]	SEM cells [6]
HPLM + 10% dialyzed FBS	354	433	428
RPMI 5 mM glucose + 10% FBS	386	417	424
RPMI 5 mM glucose + 10% dialyzed FBS	366	436	404
